Laboratory results published in a melting point compilation (Tetko et al.; mined from patent text by program, amines drawn as free bases though some values may be those of a salt).

In the case of `CCOC=Cc1c(OC)c(=O)[nH]c2cc(Cl)ccc2c1=O`, the melting point is reported as 202 to 204 °C.
`CCOC(=O)c1ccc(NC(=S)NCCn2c(C)ccc2C)cc1` gave a melting point of 155 to 156 °C.
Work on `Cc1[nH]c(=O)n(-c2cc(C(=O)OC(C)C)c(Cl)cc2F)c(=O)c1Br` yielded a melting point of 187 to 189 °C.
Work on `CN(SCl)C(=O)Nc1ccc(Cl)c(Cl)c1` yielded a melting point of 142 to 145 °C.
For `CCN(CC)CCCNC(=O)Cn1ncc(-c2ccccn2)c1-c1ccccc1`, the melting point was 82 to 83 °C.
In the case of `COC(=O)Cn1c(C)cc(Cc2ccsc2)c([N+](=O)[O-])c1=O`, the melting point is reported as 157 to 158 °C.
Work on `O=C(NCCCBr)c1cnn(-c2nc(-c3cccc(C(F)(F)F)c3)cs2)c1C(F)(F)F` yielded a melting point of 187 to 190 °C.
`O=P(Oc1ccccc1O)(Oc1ccccc1O)c1ccccc1` showed a melting point of 270 °C.
`CN(C)C(=O)CCC(=O)NC1CCC(CCN2CCC(c3cccc4c3CCO4)CC2)CC1` (stereo not given) gave a melting point of 205 °C.
In the case of `Cc1nc[nH]c1CSCCNC(=N)N[N+](=O)[O-]`, the melting point is reported as 146 to 147 °C.
`CN(CCCNC(=O)c1c2ccccc2nc2ccccc12)CCCNC(=O)c1c2ccccc2nc2c1[nH]c1ccccc12` gave a melting point of 108 to 110 °C.
Compound `CCNC(=O)CC1CCN(Cc2cnc3cc(NC(=O)c4ccc(-c5ccc(F)cc5)cc4)c(C)cc3c2)CC1` has a melting point of 251 °C.
For `CCCCC(=N)NC(=S)Nc1cccc(Cl)c1`, the melting point was 142 to 145 °C.
`CNC(=O)NC(=O)C(CC1CCCC1)c1ccc(S(C)(=O)=O)c(Br)c1` (stereo not given) gave a melting point of 259 to 260 °C.
Compound `COc1ccc(C2=C(C(=O)N3CCOCC3)C(=O)c3ccccc32)cc1OC` has a melting point of 71.5 °C.
For `CCOC(=O)CS(=O)(=O)Cc1cccc(-c2c(CC(=O)Nc3ccc(F)cc3C(F)(F)F)c(=O)oc3cc(Cl)c(C)cc23)c1`, the melting point was 230 to 231 °C.
For `COC(=O)c1cc2cc(C(=O)c3cccs3)c(Cl)c(Cl)c2o1`, the melting point was 184 to 187 °C.
In the case of `CCOC(=O)c1ncn(-c2ccc(Cl)c(Cl)c2)c1C`, the melting point is reported as 163 to 164 °C.
For `OCc1cn(Cc2ccc(OCc3ccccc3)cc2)cc1-c1ccccc1`, the melting point was 122 to 123 °C.
Compound `O=[N+]([O-])c1ccccc1C1=NCC(=S)Nc2sccc21` has a melting point of 207 to 209 °C.
In the case of `O=C(N[C@H]1CC[C@H](CCN2CCN(c3nccc4c3OCC4)CC2)CC1)c1ccc2c(c1)OCO2`, the melting point is reported as 214 °C.
For `NC(=O)CNC(=O)c1cccc(-c2cccc3nc(Oc4cccc(C(F)(F)F)c4)sc23)c1`, the melting point was 203 to 204 °C.
Compound `OCCCNc1nc2ccccc2n1-c1ccccc1` has a melting point of 116 to 118 °C.
With `N#CN=C(NCc1ccccc1)Nc1cccnc1` the melting point was 189 to 190 °C.
In the case of `CC(C)(CC(=O)C(=O)Nc1cc2c(cc1Br)C(=O)OC2)c1ccccc1`, the melting point is reported as 148 to 150 °C.
In the case of `CC(=O)OC1CSC(Oc2cncc(-c3ccc(CO)cc3)c2)C(OC(C)=O)C1OC(C)=O` (stereo not given), the melting point is reported as 132 to 133 °C.
With `CCCCCCCCCCCCC(C)(CS(=O)(=O)O)C(=O)O` (stereo not given) the melting point was 84 to 85 °C.
`NS(=O)(=O)c1ccc(-c2ccccc2-c2ccc(F)cc2)cc1` showed a melting point of 187 to 188 °C.
Compound `CC12CC(=O)NN=C1c1ccc(C#N)cc1C2` (stereo not given) has a melting point of 254 °C.
With `CCOc1cccnc1CO` the melting point was 74.5 to 76 °C.
Compound `CC(=O)c1ccc2cc(N3CCN(C(=O)OC(C)(C)C)CC3)ccc2c1` has a melting point of 153 to 154 °C.
`Cc1ccccc1C(=O)Nc1ccc(C(=O)N2Cc3ccccc3-c3ccccc32)cc1` showed a melting point of 190 to 194 °C.
`Cc1c2c(nn1C)N(c1ccc(Cl)cc1Cl)CCC2` gave a melting point of 66.6 to 76.6 °C.
In the case of `CCC1=C(O)C(C(C)=O)C(=O)OC1=O` (stereo not given), the melting point is reported as 212 °C.
Work on `O=C1CCCc2[nH]c3c(F)cccc3c21` yielded a melting point of 222 to 224 °C.
Work on `Cc1cccc(N2CCN(c3ccc(OCc4ccccc4)nn3)CC2)c1` yielded a melting point of 159 °C.
With `C=CCn1cc2c(C3C(=O)Nc4ccc(C#N)cc43)ncnc2n1` (stereo not given) the melting point was > 300 °C.
`CCc1ccc(Cc2cn(C3OC(COC(=O)c4ccccc4)C(O)C(OC(=O)c4ccccc4)C3OC(=O)c3ccccc3)c3cccc(Cl)c23)cc1` (stereo not given) showed a melting point of 192 to 193 °C.
Work on `COc1cc(-c2c(Cl)c(CN3CCCC3=O)nc3sc4c(c23)CCN(Cc2ccccc2)C4)ccc1OC(C)C` yielded a melting point of 140 to 141 °C.
Compound `CCCCCCCC/C=C\CCCCCCCCOc1ccc(C(=O)O)o1` has a melting point of 93 to 96 °C.
With `CC(=O)Nc1ccc(C(C)=O)c(F)c1F` the melting point was 149 to 152 °C.
Work on `CCC(C)CNC(=O)c1cc(NC(=O)OCc2ccccc2)cc(C(=O)NCC(C)CC)c1` (stereo not given) yielded a melting point of 130 to 132 °C.
For `Nc1n[nH]c2cc(CN3CCN(S(=O)(=O)c4cc5ccc(Cl)cc5s4)CC3=O)ccc12`, the melting point was 274 to 276 °C.
Work on `CCOC(=O)C(C)(C)Oc1ccc(OCc2nc(-c3ccc(C(C)(C)C)cc3)no2)cc1` yielded a melting point of 79 to 81 °C.
With `CC(O)CN(CC(C)O)C(=O)c1ccc(C(=O)N2CCN(c3ncccc3NC(C)C)CC2)cc1` (stereo not given) the melting point was 73 to 75 °C.
`O=CN(O)[C@@H](CN1C(=O)CNC1=O)CS(=O)(=O)c1ccc(Oc2ccc(OC(F)(F)F)cc2)cc1` showed a melting point of 154 °C.
`OC1CCSC(=S)N1c1ccc(Cl)cn1` (stereo not given) gave a melting point of 136 to 137 °C.
Work on `O=C(O)c1ccc(CC(=O)c2ccccc2Cl)cc1` yielded a melting point of 168 to 172 °C.
Compound `COC1(c2cc(F)cc(OCC#Cc3ccc(Cc4nc(-c5ccccc5)c(-c5ccc(S(N)(=O)=O)cc5)o4)cc3)c2)CCOCC1` has a melting point of 86 to 100 °C.
Compound `C=Cc1cn(S(=O)(=O)c2ccc(C)cc2)c2ccc(C#N)cc12` has a melting point of 134 to 135 °C.
For `COC(C)=Nc1nc[nH]c1C#N`, the melting point was 147 to 149 °C.
`Cc1ccc(S(=O)(=O)Oc2ccc(S(=O)(=O)C3Cc4ccccc4C3Cl)cc2)cc1` (stereo not given) showed a melting point of 176 °C.
`O=C(CCl)N(c1ccccc1)c1cccc(F)c1` showed a melting point of 115 to 117 °C.
In the case of `CC(=O)CC(=O)Nc1cccc(OC(=O)NC(C)C)c1`, the melting point is reported as 161 °C.
With `COc1ccc(N2C(=O)C(=C3CCCN3)c3ccccc32)cc1F` the melting point was 169 to 171 °C.
In the case of `O=C1COC2(CCN(CCc3ccccc3)CC2)CN1`, the melting point is reported as 140 to 141 °C.
`CCOC(=O)c1[nH]c(C)nc1C(=S)OCC` showed a melting point of 119 to 121 °C.
In the case of `O=C(NCc1ccccc1)c1ccnc(-n2ccc(-c3ccccc3)cc2=O)c1`, the melting point is reported as 162 to 163 °C.
Compound `CC(=O)OC1CCC2(C)C(=CC(=O)C3C2CCC2(C)C(C(C)CCCC(C)(C)C)CCC32)C1` (stereo not given) has a melting point of 183 to 186 °C.
In the case of `O=C(CCCc1ccccc1)c1cccc(OCc2ccc3ccccc3c2)c1`, the melting point is reported as 75 to 76 °C.
`O=C(NC(=CC(=O)[C@H](Cc1ccccc1)N(Cc1ccccc1)Cc1ccccc1)Cc1ccccc1)c1ccccc1` gave a melting point of 131 to 133 °C.
With `CN1C(=O)c2[nH]c3ccccc3c2Oc2ccccc21` the melting point was 247 to 248 °C.
Work on `CCOC(c1ccc(Cl)c2nc3n(c12)CCCN3c1ccc(Cl)cc1Cl)C1CC1` (stereo not given) yielded a melting point of 138 to 140 °C.
With `COc1ccc(OCCCCCCCc2cc(C)no2)c([N+](=O)[O-])c1` the melting point was 51 °C.
`CC(=O)Nc1nc(-c2ccc(NS(C)(=O)=O)c(Oc3ccc(F)cc3F)c2)cs1` showed a melting point of 192 to 193 °C.
In the case of `Cc1ccccc1CN1CCN(C(=O)c2ccc(N(CCOC(C)C)C(=O)CCl)cc2)CC1`, the melting point is reported as 142 to 143 °C.
With `CC(C)(S)CNc1ccccc1N` the melting point was 38 to 40 °C.
`C=C(C(=O)O)c1cc(-c2cc3c(cc2C)C(C)(C)CCC3(C)C)ccc1OCCC` showed a melting point of 125 to 126 °C.
In the case of `CC(c1ccc(Br)cc1)N(O)C(=O)NCCO` (stereo not given), the melting point is reported as 117 to 119 °C.
With `Cn1c(=O)ccn(C2C=CC(CO)O2)c1=O` (stereo not given) the melting point was 203 to 204 °C.
